Test results as given in patent US20140323300A1, “HERBICIDAL COMPOUNDS” (SYNGENTA LIMITED, priority 2011, published 2014).

How the values were obtained:
Assay type in all cases: in vivo
[1] = test system: Alopecurus myosuroides (ALOMY); test: Post-emergence glasshouse herbicide test; details: post-emergence (sprayed after 8 days cultivation), 1000 g/h, evaluated after 13 days, five point scale
Description: (§1) Seeds of a variety of test species are sown in standard soil in pots (Alopecurus myosuroides (ALOMY), Setaria faberi (SETFA), Echinochloa crus-galli (ECHCG), Solanum nigrum (SOLNI), Amaranthus retoflexus (AMARE), Ipomoea hederacea (IPOHE)). After cultivation for one day (pre-emergence) or after 8 days cultivation (post-emergence) under controlled conditions in a glasshouse (at 24/16° C., day/night; 14 hours light; 65% humidity), the plants are sprayed with an aqueous spray solution derived from the formulation of the technical active ingredient in acetone/water (50:50) solution containing 0.5% Tween 20 (polyoxyethelyene sorbitan monolaurate, CAS RN 9005-64-5). Compounds are applied at 1000 g/h. The test plants are then grown in a glasshouse under controlled conditions in a glasshouse (at 24/16° C., day/night; 14 hours light; 65% humidity) and watered twice daily. After 13 days for pre and post-emergence, the test is evaluated for the percentage damage caused to the plant. The biological activities are shown in the following table on a five point scale (5=80-100%; 4=60-79%; 3=40-59%; 2=20-39%; 1=0-19%).

[2] = test system: Amaranthus retoflexus (AMARE); test: Post-emergence glasshouse herbicide test; details: post-emergence (sprayed after 8 days cultivation), 1000 g/h, evaluated after 13 days, five point scale
Description: as §1

[3] = test system: Echinochloa crus-galli (ECHCG); test: Post-emergence glasshouse herbicide test; details: post-emergence (sprayed after 8 days cultivation), 1000 g/h, evaluated after 13 days, five point scale
Description: as §1

[4] = test system: Ipomoea hederacea (IPOHE); test: Post-emergence glasshouse herbicide test; details: post-emergence (sprayed after 8 days cultivation), 1000 g/h, evaluated after 13 days, five point scale
Description: as §1

Setaria faberi (SETFA) [5] = test: Post-emergence glasshouse herbicide test; details: post-emergence (sprayed after 8 days cultivation), 1000 g/h, evaluated after 13 days, five point scale
Description: as §1

Solanum nigrum (SOLNI) [6] = test: Post-emergence glasshouse herbicide test; details: post-emergence (sprayed after 8 days cultivation), 1000 g/h, evaluated after 13 days, five point scale
Description: as §1

[7] = test system: Alopecurus myosuroides (ALOMY); test: Pre-emergence glasshouse herbicide test; details: pre-emergence (sprayed after one day cultivation), 1000 g/h, evaluated after 13 days, five point scale
Description: as §1

[8] = test system: Amaranthus retoflexus (AMARE); test: Pre-emergence glasshouse herbicide test; details: pre-emergence (sprayed after one day cultivation), 1000 g/h, evaluated after 13 days, five point scale
Description: as §1

[9] = test system: Echinochloa crus-galli (ECHCG); test: Pre-emergence glasshouse herbicide test; details: pre-emergence (sprayed after one day cultivation), 1000 g/h, evaluated after 13 days, five point scale
Description: as §1

[10] = test system: Ipomoea hederacea (IPOHE); test: Pre-emergence glasshouse herbicide test; details: pre-emergence (sprayed after one day cultivation), 1000 g/h, evaluated after 13 days, five point scale
Description: as §1

Setaria faberi (SETFA) [11] = test: Pre-emergence glasshouse herbicide test; details: pre-emergence (sprayed after one day cultivation), 1000 g/h, evaluated after 13 days, five point scale
Description: as §1

Solanum nigrum (SOLNI) [12] = test: Pre-emergence glasshouse herbicide test; details: pre-emergence (sprayed after one day cultivation), 1000 g/h, evaluated after 13 days, five point scale
Description: as §1

Row | SMILES | percentage damage caused to the plant, POST Application ALOMY [1] | percentage damage caused to the plant, POST Application AMARE [2] | percentage damage caused to the plant, POST Application ECHCG [3] | percentage damage caused to the plant, POST Application IPOHE [4] | percentage damage caused to the plant, POST Application SETFA (Setaria faberi (SETFA) [5]) | percentage damage caused to the plant, POST Application SOLNI (Solanum nigrum (SOLNI) [6]) | percentage damage caused to the plant, PRE Application ALOMY [7] | percentage damage caused to the plant, PRE Application AMARE [8] | percentage damage caused to the plant, PRE Application ECHCG [9] | percentage damage caused to the plant, PRE Application IPOHE [10] | percentage damage caused to the plant, PRE Application SETFA (Setaria faberi (SETFA) [11]) | percentage damage caused to the plant, PRE Application SOLNI (Solanum nigrum (SOLNI) [12])
1 | O=c1c(O)c(Cl)cnn1-c1ccc(Cl)cc1Cl [Compound 1.001] | 1 (1=0-19%) | 5 (5=80-100%) | 5 (5=80-100%) | 5 (5=80-100%) | 5 (5=80-100%) | 5 (5=80-100%) | 2 (2=20-39%) | 4 (4=60-79%) | 4 (4=60-79%) | 1 (1=0-19%) | 4 (4=60-79%) | 3 (3=40-59%)
2 | O=c1c(O)c(Cl)cnn1-c1ccc(C(F)(F)F)cc1Cl [Compound 1.002, 5-chloro-2-[2-chloro-4-(trifluoromethyl)phenyl]-4-hydroxy-pyridazin-3-one] | 1 (1=0-19%) | 5 (5=80-100%) | 5 (5=80-100%) | 5 (5=80-100%) | 5 (5=80-100%) | 5 (5=80-100%) | 2 (2=20-39%) | 5 (5=80-100%) | 5 (5=80-100%) | 4 (4=60-79%) | 4 (4=60-79%) | 5 (5=80-100%)
3 | CS(=O)(=O)c1cc(C(F)(F)F)ccc1-n1ncc(Cl)c(O)c1=O [Compound 1.003] | 5 (5=80-100%) | 5 (5=80-100%) | 5 (5=80-100%) | 5 (5=80-100%) | 5 (5=80-100%) | 5 (5=80-100%) | 5 (5=80-100%) | 5 (5=80-100%) | 5 (5=80-100%) | 5 (5=80-100%) | 5 (5=80-100%) | 5 (5=80-100%)
4 | Cc1c(-n2ncc(Cl)c(O)c2=O)ccc(S(C)(=O)=O)c1C1=NOCC1 [Compound 1.004] | 5 (5=80-100%) | 5 (5=80-100%) | 5 (5=80-100%) | 5 (5=80-100%) | 5 (5=80-100%) | 5 (5=80-100%) | 5 (5=80-100%) | 5 (5=80-100%) | 5 (5=80-100%) | 5 (5=80-100%) | 5 (5=80-100%) | 5 (5=80-100%)
5 | CCc1cnn(-c2ccc(S(C)(=O)=O)c(C3=NOCC3)c2C)c(=O)c1O [Compound 1.005] | 5 (5=80-100%) | 5 (5=80-100%) | 5 (5=80-100%) | 5 (5=80-100%) | 5 (5=80-100%) | 5 (5=80-100%) | 4 (4=60-79%) | 5 (5=80-100%) | 4 (4=60-79%) | 4 (4=60-79%) | 2 (2=20-39%) | 5 (5=80-100%)
